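GI50: concentration for 50% inhibition of growth. TGI is the concentration that stops growth completely.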
Legend:
Assay in all cases: NCI tumour cell line growth inhibition, 384-well format
[1] = system: 786-0 renal
[2] = system: A498 renal
[3] = system: A549 NSCLC
[4] = system: ACHN renal
[5] = system: BT-549 breast
[6] = system: CAKI-1 renal
[7] = system: CCRF-CEM leukemia
[8] = system: COLO 205 colon
[9] = system: DU-145 prostate
[10] = system: EKVX NSCLC
[11] = system: HCC-2998 colon
[12] = system: HCT-15 colon
[13] = system: HL-60(TB) leukemia
[14] = system: HOP-62 NSCLC
[15] = system: HOP-92 NSCLC
[16] = system: HS 578T breast
[17] = system: HT29 colon
[18] = system: IGROV1 ovarian
[19] = system: K-562 leukemia
[20] = system: KM12 colon
[21] = system: LOX IMVI melanoma
[22] = system: M14 melanoma
[23] = system: MALME-3M melanoma
[24] = system: MCF7 breast
[25] = system: MDA-MB-231 breast
[26] = system: MDA-MB-435 melanoma
[27] = system: MDA-MB-468 breast
[28] = system: MOLT-4 leukemia
[29] = system: NCI-H23 lung
[30] = system: NCI-H322M lung
[31] = system: NCI-H460 NSCLC
[32] = system: NCI-H522 lung
[33] = system: NCI/ADR-RES ovarian
[34] = system: OVCAR-3 ovarian
[35] = system: OVCAR-4 ovarian
[36] = system: OVCAR-5 ovarian
[37] = system: OVCAR-8 ovarian
[38] = system: PC-3 prostate
[39] = system: RPMI-8226 leukemia
[40] = system: RXF 393 renal
[41] = system: SF-268 CNS
[42] = system: SF-295 CNS
[43] = system: SF-539 CNS
[44] = system: SK-MEL-28 melanoma
[45] = system: SK-MEL-5 melanoma
[46] = system: SK-OV-3 ovarian
[47] = system: SN12C renal
[48] = system: SNB-19 CNS
[49] = system: SNB-75 CNS
[50] = system: SR leukemia
[51] = system: SW-620 colon
[52] = system: T-47D breast
[53] = system: TK-10 renal
[54] = system: UACC-62 melanoma
[55] = system: UO-31 renal

Compound: O=C(NCCCc1cn[nH]c1)c1ccc(-c2ccncc2)c(C#Cc2ccc(F)cc2)c1
- GI50 [1]: < 0.01 µM
- TGI [1]: < 0.01 µM
- GI50 [2]: < 0.01 µM
- TGI [2]: 0.252 µM
- GI50 [3]: < 0.01 µM
- TGI [3]: < 0.01 µM
- GI50 [4]: < 0.01 µM
- TGI [4]: < 0.01 µM
- GI50 [5]: < 0.01 µM
- TGI [5]: < 0.01 µM
- GI50 [6]: < 0.01 µM
- TGI [6]: < 0.01 µM
- GI50 [7]: < 0.01 µM
- TGI [7]: < 0.01 µM
- GI50 [8]: < 0.01 µM
- TGI [8]: < 0.01 µM
- GI50 [9]: < 0.01 µM
- TGI [9]: < 0.01 µM
- GI50 [10]: < 0.01 µM
- TGI [10]: < 0.01 µM
- GI50 [11]: < 0.01 µM
- TGI [11]: < 0.01 µM
- GI50 [12]: < 0.01 µM
- TGI [12]: < 0.01 µM
- GI50 [13]: < 0.01 µM
- TGI [13]: < 0.01 µM
- GI50 [14]: < 0.01 µM
- TGI [14]: < 0.01 µM
- GI50 [15]: < 0.01 µM
- TGI [15]: < 0.01 µM
- GI50 [16]: < 0.01 µM
- TGI [16]: < 0.01 µM
- GI50 [17]: < 0.01 µM
- TGI [17]: < 0.01 µM
- GI50 [18]: < 0.01 µM
- TGI [18]: < 0.01 µM
- GI50 [19]: < 0.01 µM
- TGI [19]: < 0.01 µM
- GI50 [20]: < 0.01 µM
- TGI [20]: < 0.01 µM
- GI50 [21]: < 0.01 µM
- TGI [21]: 0.0156 µM
- GI50 [22]: < 0.01 µM
- TGI [22]: < 0.01 µM
- GI50 [23]: < 0.01 µM
- TGI [23]: < 0.01 µM
- GI50 [24]: 0.013 µM
- TGI [24]: 0.0269 µM
- GI50 [25]: < 0.01 µM
- TGI [25]: < 0.01 µM
- GI50 [26]: < 0.01 µM
- TGI [26]: < 0.01 µM
- GI50 [27]: < 0.01 µM
- TGI [27]: < 0.01 µM
- GI50 [28]: < 0.01 µM
- TGI [28]: < 0.01 µM
- GI50 [29]: < 0.01 µM
- TGI [29]: < 0.01 µM
- GI50 [30]: < 0.01 µM
- TGI [30]: < 0.01 µM
- GI50 [31]: < 0.01 µM
- TGI [31]: 0.0135 µM
- GI50 [32]: < 0.01 µM
- TGI [32]: < 0.01 µM
- GI50 [33]: < 0.01 µM
- TGI [33]: < 0.01 µM
- GI50 [34]: < 0.01 µM
- TGI [34]: < 0.01 µM
- GI50 [35]: < 0.01 µM
- TGI [35]: < 0.01 µM
- GI50 [36]: < 0.01 µM
- TGI [36]: < 0.01 µM
- GI50 [37]: < 0.01 µM
- TGI [37]: < 0.01 µM
- GI50 [38]: < 0.01 µM
- TGI [38]: < 0.01 µM
- GI50 [39]: < 0.01 µM
- TGI [39]: < 0.01 µM
- GI50 [40]: < 0.01 µM
- TGI [40]: < 0.01 µM
- GI50 [41]: < 0.01 µM
- TGI [41]: < 0.01 µM
- GI50 [42]: < 0.01 µM
- TGI [42]: < 0.01 µM
- GI50 [43]: < 0.01 µM
- TGI [43]: < 0.01 µM
- GI50 [44]: < 0.01 µM
- TGI [44]: < 0.01 µM
- GI50 [45]: < 0.01 µM
- TGI [45]: < 0.01 µM
- GI50 [46]: < 0.01 µM
- TGI [46]: < 0.01 µM
- GI50 [47]: < 0.01 µM
- TGI [47]: < 0.01 µM
- GI50 [48]: < 0.01 µM
- TGI [48]: < 0.01 µM
- GI50 [49]: < 0.01 µM
- TGI [49]: < 0.01 µM
- GI50 [50]: < 0.01 µM
- TGI [50]: < 0.01 µM
- GI50 [51]: < 0.01 µM
- TGI [51]: < 0.01 µM
- GI50 [52]: < 0.01 µM
- TGI [52]: < 0.01 µM
- GI50 [53]: < 0.01 µM
- TGI [53]: < 0.01 µM
- GI50 [54]: < 0.01 µM
- TGI [54]: < 0.01 µM
- GI50 [55]: < 0.01 µM
- TGI [55]: < 0.01 µM

Reference: PubChem BioAssay (NCI)
